Where a name gives a salt, the structure may show the parent alone.
Key:
[1] = Solubility in phosphate buffered saline (receiver fluid); format: physicochemical; conditions: aqueous buffer
From the text: (§1) Accurate determination of the rate of transport of buspirone through the skin relies upon the maintenance of sink conditions in the receiver fluid. […] Such high solubility was sufficient to ensure sink conditions for the study.

[2] = system: oxazolone hypersensitivity reaction; conditions: mice, cited from earlier work
[3] = Stability in the receiver fluid; format: physicochemical; conditions: PBS receiver fluid, length of the study (48 hours)
From the text: as §1

| SMILES | solubility [1] [µg/mL] | oxazolone ear swelling ([2]; applied topically in an undefined solution, over the range 100 mg/ml to 0.25 mg/ml, McAloon et al. 1995) | inhibition of oxazolone hypersensitivity reactions ([2]; from U.S. Pat. No. 5,484,788, 5,631,017, WO 94/22448) | stability in the receiver fluid [3] |
| --- | --- | --- | --- | --- |
| O=C1CC2(CCCC2)CC(=O)N1CCCCN1CCN(c2ncccn2)CC1 [buspirone hydrochloride] | > 3000 | – | – | – |
| O=C1CC2(CCCC2)CC(=O)N1CCCCN1CCN(c2ncccn2)CC1 [buspirone, 8-[4-[4-(2-pyrimidyl)-1-piperazinyl]butyl]-8-azaspiro[4.5]decane-7,9-dione] | – | inhibits oxazolone ear swelling | inhibit oxazolone hypersensitivity reactions | stable |

— patent publication US20060088556A1 (priority 2003, published 2006)
